Data published in article PMC10094510, “Novel Cannabinoid Receptor 2 (CB2) Low Lipophilicity Agonists Produce Distinct cAMP and Arrestin Signalling Kinetics without Bias” (International Journal of Molecular Sciences, 2023).

Columns and labels:
[1] = set-up: method as in PMID 22444677, PMID 25721168; settings: cited from earlier work
rodents = tested on: rodents; set-up: method as in PMID 22444677, PMID 25721168; settings: cited from earlier work
atopic dermatitis = tested on: atopic dermatitis; set-up: method as in PMID 22444677, PMID 25721168; settings: informally reported; cited from earlier work
CB2 = biological target: CB2; set-up: method as in PMID 22444677; settings: error not shown; cited from earlier work
human CB1 = biological target: T1, human CB1 (Homo sapiens, UniProt P21554); test: Competition radioligand binding assay ([3H]-CP55,940), hCB1 membranes; settings: 0.75 nM [3H]-CP55,940; estimates, incomplete displacement at maximum concentration; read-out: CB1 pKi (±SEM) (converted)
T1 construct: pplss (N); 3HA (N); expressed in transfected cells
Experimental: Preparation of hCB1- and hCB2-membranes from a HEK pplss-3HA-hCB1 cell line and HEK Flp-in HA-3TCS-hCB2 63R cell line, respectively, followed the protocol described previously. […] The concentration of DMSO was kept equivalent across all test conditions. All dilutions were dispensed into a 96-well, polypropylene V-bottom plate (Gene Era Biotech, Hangzhou, China). […] All conditions were carried out in technical duplicate. The plate was then sealed, tap-mixed, then incubated at 30 °C for 1 h. A total of 50 µL of 0.1% PEI (Sigma-Aldrich, St. Louis, MI, USA) in MQ water was added to each well of a 96-well GF/C harvest plate (Perkin Elmer) 1 h prior to the harvest. When the incubation finished, vacuum (~5 mmHg) was applied to the harvest plate and wells were washed (50 mM HEPES pH 7.4, 500 mM NaCl, 1 mg/mL BSA, MQ water, ice cold). Subsequently, the contents of the V-bottom plate were transferred to corresponding wells in the harvest plate, wash buffer was used to wash the remaining contents of the V-bottom wells before transferring this to the harvest plate, then the harvest plate was washed an additional three times. The plate was dried for ~24 h at 24 °C. To prepare for reading, the bottom of the plate was sealed, each well received 50 µL of Irgasafe Plus scintillation fluid (Perkin Elmer), followed by sealing the top of the plate. Plates were read in a Wallac MicroBeta® TriLux Liquid Scintillation Counter (Perkin Elmer) with a read time of 2 min/well.
(§1) GraphPad Prism (v8.0.2; GraphPad Software, San Diego, CA, USA) was used to fit nonlinear regression curves (One site—Fit Ki) to the corrected counts per minutes (CCPM) of each displacer to determine their pKi (negative log Ki). […] Mean and SEM of pKi values were calculated from independent experiments. […] CB2 selectivity was calculated as […].

human CB2 = biological target: T2, human CB2 (Homo sapiens, UniProt P34972, Q63R); test: Competition radioligand binding assay ([3H]-CP55,940), hCB2 membranes
T2 construct: HA (N); 3TCS (N); expressed in transfected cells; host or cells: HEK-293S cells, transient transfection (PEI max)
Experimental: The concentration of DMSO was kept equivalent across all test conditions. All dilutions were dispensed into a 96-well, polypropylene V-bottom plate (Gene Era Biotech, Hangzhou, China). […] All conditions were carried out in technical duplicate. The plate was then sealed, tap-mixed, then incubated at 30 °C for 1 h. A total of 50 µL of 0.1% PEI (Sigma-Aldrich, St. Louis, MI, USA) in MQ water was added to each well of a 96-well GF/C harvest plate (Perkin Elmer) 1 h prior to the harvest. When the incubation finished, vacuum (~5 mmHg) was applied to the harvest plate and wells were washed (50 mM HEPES pH 7.4, 500 mM NaCl, 1 mg/mL BSA, MQ water, ice cold). Subsequently, the contents of the V-bottom plate were transferred to corresponding wells in the harvest plate, wash buffer was used to wash the remaining contents of the V-bottom wells before transferring this to the harvest plate, then the harvest plate was washed an additional three times. The plate was dried for ~24 h at 24 °C. To prepare for reading, the bottom of the plate was sealed, each well received 50 µL of Irgasafe Plus scintillation fluid (Perkin Elmer), followed by sealing the top of the plate. Plates were read in a Wallac MicroBeta® TriLux Liquid Scintillation Counter (Perkin Elmer) with a read time of 2 min/well.
as §1

T2 sequence (P34972 whole entry Q63R): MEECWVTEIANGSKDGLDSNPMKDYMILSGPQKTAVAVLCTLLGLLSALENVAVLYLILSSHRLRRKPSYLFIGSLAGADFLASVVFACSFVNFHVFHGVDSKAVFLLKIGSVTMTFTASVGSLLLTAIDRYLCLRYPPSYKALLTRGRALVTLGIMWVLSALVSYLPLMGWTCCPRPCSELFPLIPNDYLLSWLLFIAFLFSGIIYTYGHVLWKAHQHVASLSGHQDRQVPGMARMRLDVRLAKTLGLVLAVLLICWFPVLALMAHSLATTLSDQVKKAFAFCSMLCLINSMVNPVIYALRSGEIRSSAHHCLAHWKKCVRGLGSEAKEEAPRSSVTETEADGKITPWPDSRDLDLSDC
T1 sequence (P21554 whole entry): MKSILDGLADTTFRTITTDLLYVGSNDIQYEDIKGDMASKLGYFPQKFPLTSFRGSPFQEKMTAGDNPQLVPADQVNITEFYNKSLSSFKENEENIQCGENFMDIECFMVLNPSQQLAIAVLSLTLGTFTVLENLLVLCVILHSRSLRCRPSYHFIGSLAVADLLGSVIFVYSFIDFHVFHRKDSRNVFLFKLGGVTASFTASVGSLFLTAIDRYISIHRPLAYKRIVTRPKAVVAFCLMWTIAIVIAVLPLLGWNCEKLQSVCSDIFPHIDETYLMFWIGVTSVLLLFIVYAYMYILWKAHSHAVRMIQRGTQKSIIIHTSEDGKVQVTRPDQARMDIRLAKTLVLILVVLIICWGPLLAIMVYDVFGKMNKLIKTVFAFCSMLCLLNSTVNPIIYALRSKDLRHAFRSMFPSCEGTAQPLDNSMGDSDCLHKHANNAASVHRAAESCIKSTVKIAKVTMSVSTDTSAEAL

CCc1c(C)cc(C(=O)NC2(C(=O)O)CCCCC2)c(=O)n1Cc1ccc(F)cc1 [UOSS77, reference compound]
oral bioavailability [1]: orally bioavailable
anti-pruritic activity in rodents (rodents): shown promise as an anti-pruritic agent
efficacy in Phase 2 clinical trial for atopic dermatitis (atopic dermatitis): ineffective
CB2 pKi (CB2): 7.4
Ki (human CB1): ~15.8 µM
Ki (human CB2; 0.75 nM [3H]-CP55,940, mean (SEM), read-out: CB2 pKi (±SEM) (converted)): 0.186 µM
CB2/CB1 Selectivity (human CB2; CB2 selectivity relative to CB1, from Ki (or Kd)): ~80
displacement of [3H]-CP55,940 from CB2 (human CB2; full displacement = ≥ 75% relative to 1 µM CP55,940): fully displaced
